In patent publication US20060154346A1, “Microorganism producing 5'xanthylic acid” (priority 2002, published 2006):

Key:
[1] = tested on: Corynebacterium ammoniagenes KCCM 10340; assay: Growth of the strain in medium with added oligomycin (resistance test); assay type: cell-based; parameters: key: +: growth; −: no growth; conditions: 30° C. for 5 days
Description: (§1) The invention relates to Corynebacterium ammoniagenes CJXOL 0201 (KCCM-10447) which is a mutant strain of Corynebacterium ammoniagenes KCCM 10340, producing 5′-xanthylic acid. The CJXOL 0201 is obtained by treating Corynebacterium ammoniagenes KCCM 10340 with UV radiation and mutation derivatives such as N-methy-N′-nitro-n-nitrosoguanidine(NTG) according to ordinary procedure, and selecting a mutant strain among these which can grow in the culture medium (glucose 20 g/L, potassium phosphate monobasic 1 g/L, potassium phosphate dibasic 1 g/L, urea 2 g/L, ammonium sulfate 3 g/L, magnesium sulfate 1 g/L, calcium chloride 100 mg/L, ferrous sulfate 20 mg/L, manganese sulfate 10 mg/L, zinc sulfate 10 mg/L, biotin 30 μg/L, thiamine hydrochloride 0.1 mg/L, copper sulfate 0.8 mg/L, adenine 20 mg/L, guanine 20 mg/L, pH 7.2) which different concentration levels of oligomycin (1,2,5,10,20,50 mg/L) is added into. […] 21, 2002 with accession Number KCCM 10447.
(§2) According to the Table 1, the microorganism of the invention can grow in the medium which 10 mg/L oligomycin was added into. The medium was: fermented at 30° C. for 5 days.

[2] = tested on: Corynebacterium ammoniagenes CJXOL 0201; assay: as above; assay type: cell-based; parameters: key to growth of strain: +: growth; −: no growth
Description: as §1, §2

SMILES: CC[C@H]1/C=C/C=C/C[C@@H](C)[C@H](O)[C@@](C)(O)C(=O)[C@@H](C)[C@H](O)[C@@H](C)C(=O)[C@@H](C)[C@H](O)[C@@H](C)/C=C/C(=O)O[C@@H]2[C@H](C)[C@H](CC1)O[C@]1(CC[C@H](C)[C@H](C[C@@H](C)O)O1)[C@H]2C [Oligomycin, oligomycin]
- growth of strain ([1]; oligomycin 10 mg/L): +
- growth of strain ([1]; oligomycin 20 mg/L): −
- growth of strain ([1]; oligomycin 30 mg/L): −
- growth of strain ([1]; oligomycin 40 mg/L): −
- growth of strain ([1]; oligomycin 50 mg/L): −
- oligomycin concentration up to which resistance (growth) was shown; no growth above ([2]; 0˜50 mg/L oligomycin added into selection medium): up to 20 mg/L
- growth in medium with oligomycin ([2]; oligomycin 10 mg/L, 30° C. for 5 days): can grow
- growth of strain ([2]; oligomycin 30 mg/L, 30° C. for 5 days): +
- growth of strain ([2]; oligomycin 40 mg/L, 30° C. for 5 days): −
- growth of strain ([2]; oligomycin 50 mg/L, 30° C. for 5 days): −
